Key:
HCT-116 cell line = assay: Inhibition of cell growth, MTT tetrazolium salt assay; format: cell-based; conditions: for HCT-116 % Inhibition at 0.1 μM: HCT-116, at 0.1 μM; for HCT-116 % Inhibition at 0.25 μM: HCT-116, at 0.25 μM
How it was run: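 Growth inhibition was read as MTT-formazan absorbance at 540 nm, after 4 h with 0.2 mg/mL MTT. Before that, HCT-116 cells had been exposed 3–5 days at 37 °C to compounds in 0.5% (v/v) DMSO, added 4 h after plating. 50% and 90% inhibitory concentrations were taken from semi-log concentration–inhibition plots versus vehicle controls.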

human CDK4/cyclin D3 = target: T1, human CDK4/cyclin D3 (Homo sapiens, UniProt P11802); assay: Inhibition of CDK4/cyclin D retinoblastoma kinase activity (Ki; % inhibition); format: biochemical; conditions: at 0.03 μM
T1 construct: made in house; host or cells: insect cells co-infected with baculovirus vectors
How it was run: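 Insect-cell-expressed CDK4 with truncated cyclin D3 (1-264), 5 nM, phosphorylating His-tagged Rb fragment (386-928) with 25 μM [32/33P]ATP at pH 7.4, 30 °C, 20 min (60 min for tight binders). Filter capture, phosphorimager read; % inhibition at 30 nM compound, Ki from competitive or tight-binding fits.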

CDK2/cyclin A = target: T2, CDK2/cyclin A (Homo sapiens, UniProt P24941); assay: Inhibition of CDK2/cyclin A retinoblastoma kinase activity (Ki; % inhibition); format: biochemical; conditions: at 0.03 μM
T2 construct: made in house; host or cells: CDK2: insect cells (baculovirus); cyclin A: E. coli
How it was run: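 Radiometric filter assay of CDK2/proteolyzed cyclin A (baculovirus-expressed human CDK2, 10 or 19 nM) phosphorylating an Rb fragment with 25 μM [³²P/³³P]ATP in pH 7.4 HEPES, 2% DMSO, at 30 °C for 60 or 75 min under initial-rate conditions. Library compounds screened at 30 nM for % inhibition; apparent Ki from concentration series fit to competitive or tight-binding inhibition equations.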

T1 sequence (P11802 whole entry): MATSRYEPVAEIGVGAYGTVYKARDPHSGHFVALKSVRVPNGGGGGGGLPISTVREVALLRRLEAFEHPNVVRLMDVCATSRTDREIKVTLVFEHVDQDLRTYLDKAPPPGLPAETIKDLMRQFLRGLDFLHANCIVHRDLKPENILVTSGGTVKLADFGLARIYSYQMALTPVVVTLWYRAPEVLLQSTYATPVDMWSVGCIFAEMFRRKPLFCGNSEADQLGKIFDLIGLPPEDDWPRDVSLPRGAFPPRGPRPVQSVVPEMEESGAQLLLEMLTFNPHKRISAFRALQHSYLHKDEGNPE
T1 sequence (P30281 1-264 partner limits assumed): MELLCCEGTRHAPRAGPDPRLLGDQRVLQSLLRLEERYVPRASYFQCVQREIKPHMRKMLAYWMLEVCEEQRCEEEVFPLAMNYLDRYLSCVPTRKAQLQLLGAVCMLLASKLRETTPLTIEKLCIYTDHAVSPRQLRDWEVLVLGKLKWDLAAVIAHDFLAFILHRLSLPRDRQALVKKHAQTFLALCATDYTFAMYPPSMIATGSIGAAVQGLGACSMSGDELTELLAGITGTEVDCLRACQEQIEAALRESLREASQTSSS

| SMILES | HCT-116 % Inhibition at 0.1 μM (HCT-116 cell line) [%] | HCT-116 % Inhibition at 0.25 μM (HCT-116 cell line) [%] | CDK4 % Inhibition at 0.03 μM (human CDK4/cyclin D3) [%] | CDK2 % Inhibition at 0.03 μM (CDK2/cyclin A) [%] | HCT-116 % Inhibition at 0.25 μM (HCT-116 cell line; 0.25 µM) [%] | HCT-116 % Inhibition at 0.1 μM (HCT-116 cell line; 0.1 µM) [%] |
| --- | --- | --- | --- | --- | --- | --- |
| CCOC(=O)Cc1ccc(NC(=O)c2ccc(Nc3nc(N)c(C(=O)c4c(F)cccc4F)s3)cc2)cc1 [Example G130] | 0 | 77 | 11 | 1 | – | – |
| Nc1nc(Nc2ccc(C(=O)NC3CCCC3)cc2)sc1C(=O)c1c(F)cccc1F [Example G131] | 0 | 58 | 16 | 6 | – | – |
| Nc1nc(Nc2ccc(C(=O)NCCCN3CCOCC3)cc2)sc1C(=O)c1c(F)cccc1F [Example G132] | 0 | 52 | 27 | 9 | – | – |
| CC(CCc1ccccc1)NC(=O)c1ccc(Nc2nc(N)c(C(=O)c3c(F)cccc3F)s2)cc1 (centres unmarked) [Example G133] | 0 | 47 | 13 | −6 | – | – |
| Nc1nc(Nc2ccc(C(=O)NCCNc3ccccc3)cc2)sc1C(=O)c1c(F)cccc1F [Example G134] | 1 | 89 | 38 | 60 | – | – |
| CC(C)OCCCNC(=O)c1ccc(Nc2nc(N)c(C(=O)c3c(F)cccc3F)s2)cc1 [Example G135] | 0 | 56 | 25 | 2 | – | – |
| CCOCCNC(=O)c1ccc(Nc2nc(N)c(C(=O)c3c(F)cccc3F)s2)cc1 [Example G136] | 0 | 49 | 12 | −4 | – | – |
| NC(=O)CCNC(=O)c1ccc(Nc2nc(N)c(C(=O)c3c(F)cccc3F)s2)cc1 [Example G137] | 0 | 59 | 25 | 2 | – | – |
| COc1cc(NC(=O)c2ccc(Nc3nc(N)c(C(=O)c4c(F)cccc4F)s3)cc2)ccc1C [Example G138] | 0 | 65 | 17 | 7 | – | – |
| Nc1nc(Nc2ccc(C(=O)NC3CCCCC3)cc2)sc1C(=O)c1c(F)cccc1F [Example G139] | 0 | 56 | 17 | 6 | – | – |
| Nc1nc(Nc2ccc(C(=O)NCCc3ccccn3)cc2)sc1C(=O)c1c(F)cccc1F [Example G140] | 0 | 54 | 19 | 15 | – | – |
| CC(C)CCCC(C)NC(=O)c1ccc(Nc2nc(N)c(C(=O)c3c(F)cccc3F)s2)cc1 (centres unmarked) [Example G141] | 0 | 50 | 11 | 0 | – | – |
| CC(=O)NCCNC(=O)c1ccc(Nc2nc(N)c(C(=O)c3c(F)cccc3F)s2)cc1 [Example G142] | 0 | 46 | 20 | 11 | – | – |
| Nc1nc(Nc2ccc(C(=O)NCCCn3ccnc3)cc2)sc1C(=O)c1c(F)cccc1F [Example G143] | 0 | 65 | 27 | 2 | – | – |
| Nc1nc(Nc2ccc(C(=O)NCC3CC3)cc2)sc1C(=O)c1c(F)cccc1F [Example G144] | 0 | 57 | 11 | 0 | – | – |
| COC(=O)[C@H](C)NC(=O)c1ccc(Nc2nc(N)c(C(=O)c3c(F)cccc3F)s2)cc1 [Example G145] | 0 | 68 | 18 | 19 | – | – |
| Nc1nc(Nc2ccc(C(=O)Nc3ccccc3N3CCOCC3)cc2)sc1C(=O)c1c(F)cccc1F [Example G146] | 1 | 52 | 7 | 6 | – | – |
| CN1CCCC1CCNC(=O)c1ccc(Nc2nc(N)c(C(=O)c3c(F)cccc3F)s2)cc1 (centres unmarked) [Example G147] | 0 | 65 | 35 | 10 | – | – |

| SMILES | HCT-116 % Inhibition at 0.1 μM (HCT-116 cell line) [%] | HCT-116 % Inhibition at 0.25 μM (HCT-116 cell line) [%] | CDK4 % Inhibition at 0.03 μM (human CDK4/cyclin D3) [%] | CDK2 % Inhibition at 0.03 μM (CDK2/cyclin A) [%] | HCT-116 % Inhibition at 0.25 μM (HCT-116 cell line; 0.25 µM) [%] | HCT-116 % Inhibition at 0.1 μM (HCT-116 cell line; 0.1 µM) [%] |
| --- | --- | --- | --- | --- | --- | --- |
| CCC(C)NC(=O)c1ccc(Nc2nc(N)c(C(=O)c3c(F)cccc3F)s2)cc1 (centres unmarked) [Example G148] | 0 | 48 | 14 | 5 | – | – |
| CN(C)CCNC(=O)c1ccc(Nc2nc(N)c(C(=O)c3c(F)cccc3F)s2)cc1 [Example G149] | 10 | 82 | 36 | 23 | – | – |
| CCN1CC(NC(=O)c2ccc(Nc3nc(N)c(C(=O)c4c(F)cccc4F)s3)cc2)CN1CC [Example G150] | 0 | 57 | 25 | 15 | – | – |
| CCC(NC(=O)c1ccc(Nc2nc(N)c(C(=O)c3c(F)cccc3F)s2)cc1)c1ccccc1 (centres unmarked) [Example G151] | 27 | 94 | 7 | 16 | – | – |
| CC(C)[C@@H](CO)NC(=O)c1ccc(Nc2nc(N)c(C(=O)c3c(F)cccc3F)s2)cc1 [Example G152] | 5 | 53 | 7 | 16 | – | – |
| Nc1nc(Nc2ccc(C(=O)Nc3cccc(-c4cnco4)c3)cc2)sc1C(=O)c1c(F)cccc1F [Example G153] | 0 | 66 | 15 | 18 | – | – |
| CCN1CCCC1CNC(=O)c1ccc(Nc2nc(N)c(C(=O)c3c(F)cccc3F)s2)cc1 (centres unmarked) [Example G154] | 17 | 91 | 34 | 10 | – | – |
| Nc1nc(Nc2ccc(C(=O)NC(CO)c3ccccc3)cc2)sc1C(=O)c1c(F)cccc1F (centres unmarked) [Example G155] | 0 | – | 38 | 32 | 67 | – |
| CCC(CO)NC(=O)c1ccc(Nc2nc(N)c(C(=O)c3c(F)cccc3F)s2)cc1 (centres unmarked) [Example G156] | – | – | 24 | 24 | 61 | 0 |
| CCN(CC)CCNC(=O)c1ccc(Nc2nc(N)c(C(=O)c3c(F)cccc3F)s2)cc1 [Example G157] | 0 | 87 | 30 | 18 | – | – |
| Nc1nc(Nc2ccc(C(=O)NCCCN3CCCC3)cc2)sc1C(=O)c1c(F)cccc1F [Example G158] | 0 | 73 | 40 | 22 | – | – |
| CCC(COC)NC(=O)c1ccc(Nc2nc(N)c(C(=O)c3c(F)cccc3F)s2)cc1 (centres unmarked) [Example G159] | 0 | 74 | 5 | 6 | – | – |
| Nc1nc(Nc2ccc(C(=O)NC(CO)c3ccccc3)cc2)sc1C(=O)c1c(F)cccc1F (centres unmarked) [Example G160] | 0 | – | 6 | 24 | 87 | – |
| CNC(=O)c1ccccc1NC(=O)c1ccc(Nc2nc(N)c(C(=O)c3c(F)cccc3F)s2)cc1 [Example G161] | 0 | 57 | 7 | 13 | – | – |
| CC(NC(=O)c1ccc(Nc2nc(N)c(C(=O)c3c(F)cccc3F)s2)cc1)c1ccccc1 (centres unmarked) [Example G162] | 3 | 84 | 20 | 25 | – | – |
| CCCC(C)NC(=O)c1ccc(Nc2nc(N)c(C(=O)c3c(F)cccc3F)s2)cc1 (centres unmarked) [Example G163] | 0 | 67 | 21 | 16 | – | – |
| COCCNC(=O)c1ccc(Nc2nc(N)c(C(=O)c3c(F)cccc3F)s2)cc1 [Example G164] | 0 | 59 | 19 | 13 | – | – |

Source: patent US6720346B2, “Thiazole benzamide derivatives and pharmaceutical compositions for inhibiting cell proliferation” (Agouron Pharmaceuticals, Inc., priority 2001, dated 2004)
